# Experiments:
# Type in all cases: functional
# Oryctolagus cuniculus [1] = test: Cardiovascular activity in Albino rabbit assessed as change in heart rate tested at basal heart rate of 180 beats/min at 0.25 mg/kg, iv by physiograph 4
# Oryctolagus cuniculus [2] = test: Cardiovascular activity in Albino rabbit assessed as change in heart rate tested at basal heart rate of 180 beats/min at 0.50 mg/kg, iv by physiograph 4; settings: dose 0.5 mg/kg
# Oryctolagus cuniculus [3] = test: Cardiovascular activity in Albino rabbit assessed as change in heart rate tested at basal heart rate of 180 beats/min at 1.0 mg/kg, iv by physiograph 4
# Oryctolagus cuniculus [4] = test: Cardiovascular activity in Albino rabbit assessed as change in heart rate tested at basal heart rate of 178 beats/min at 0.50 mg/kg, iv by physiograph 4; settings: dose 0.5 mg/kg
# Oryctolagus cuniculus [5] = test: Cardiovascular activity in Albino rabbit assessed as change in heart rate tested at basal heart rate of 178 beats/min at 1.0 mg/kg, iv by physiograph 4
# Oryctolagus cuniculus [6] = test: Cardiovascular activity in Albino rabbit assessed as sinusoidal heart rate tested at basal heart rate of 180 beats/min at 0.05 mg/kg, iv by physiograph 4
# Oryctolagus cuniculus [7] = test: Cardiovascular activity in Albino rabbit assessed as change in heart rate tested at basal heart rate of 180 beats/min at 0.10 mg/kg, iv by physiograph 4; settings: dose 0.1 mg/kg
# Oryctolagus cuniculus [8] = test: Cardiovascular activity in Albino rabbit assessed as change in heart rate tested at basal heart rate of 185 beats/min at 0.10 mg/kg, iv by physiograph 4; settings: dose 0.1 mg/kg
# Oryctolagus cuniculus [9] = test: Cardiovascular activity in Albino rabbit assessed as change in heart rate tested at basal heart rate of 185 beats/min at 0.25 mg/kg, iv by physiograph 4
# Oryctolagus cuniculus [10] = test: Cardiovascular activity in Albino rabbit assessed as change in heart rate tested at basal heart rate of 185 beats/min at 0.50 mg/kg, iv by physiograph 4; settings: dose 0.5 mg/kg
# Oryctolagus cuniculus [11] = test: Cardiovascular activity in Albino rabbit assessed as change in heart rate tested at basal heart rate of 185 beats/min at 1.0 mg/kg, iv by physiograph 4
# Oryctolagus cuniculus [12] = test: Cardiovascular activity in Albino rabbit assessed as change in heart rate tested at basal heart rate of 185 beats/min at 5.0 mg/kg, iv by physiograph 4
# Oryctolagus cuniculus [13] = test: Cardiovascular activity in Albino rabbit assessed as change in heart rate tested at basal heart rate of 195 beats/min at 0.10 mg/kg, iv by physiograph 4; settings: dose 0.1 mg/kg
# Oryctolagus cuniculus [14] = test: Cardiovascular activity in Albino rabbit assessed as change in heart rate tested at basal heart rate of 195 beats/min at 0.25 mg/kg, iv by physiograph 4
# Oryctolagus cuniculus [15] = test: Cardiovascular activity in Albino rabbit assessed as change in heart rate tested at basal heart rate of 195 beats/min at 0.50 mg/kg, iv by physiograph 4; settings: dose 0.5 mg/kg
# Oryctolagus cuniculus [16] = test: Cardiovascular activity in Albino rabbit assessed as change in heart rate tested at basal heart rate of 195 beats/min at 1.0 mg/kg, iv by physiograph 4
# Oryctolagus cuniculus [17] = test: Cardiovascular activity in Albino rabbit assessed as change in heart rate tested at basal heart rate of 200 beats/min at 0.10 mg/kg, iv by physiograph 4; settings: dose 0.1 mg/kg
# Oryctolagus cuniculus [18] = test: Cardiovascular activity in Albino rabbit assessed as change in heart rate tested at basal heart rate of 200 beats/min at 0.25 mg/kg, iv by physiograph 4
# Oryctolagus cuniculus [19] = test: Cardiovascular activity in Albino rabbit assessed as change in heart rate tested at basal heart rate of 200 beats/min at 0.50 mg/kg, iv by physiograph 4; settings: dose 0.5 mg/kg
# Oryctolagus cuniculus [20] = test: Cardiovascular activity in Albino rabbit assessed as sinusoidal heart rate tested at basal heart rate of 200 beats/min at 0.05 mg/kg, iv by physiograph 4
# Oryctolagus cuniculus [21] = test: Cardiovascular activity in Albino rabbit assessed as sinusoidal heart rate tested at basal heart rate of 185 beats/min at 0.05 mg/kg, iv by physiograph 4
# Oryctolagus cuniculus [22] = test: Cardiovascular activity in Albino rabbit assessed as change in heart rate tested at basal heart rate of 200 beats/min at 1.0 mg/kg, iv by physiograph 4
SMILES,Activity (Oryctolagus cuniculus [1]),Activity (Oryctolagus cuniculus [2]),Activity (Oryctolagus cuniculus [7]),Activity (Oryctolagus cuniculus [8]),Activity (Oryctolagus cuniculus [9]),Activity (Oryctolagus cuniculus [10]),Activity (Oryctolagus cuniculus [11]),Activity (Oryctolagus cuniculus [12]),Activity (Oryctolagus cuniculus [17]),Activity (Oryctolagus cuniculus [18]),Activity (Oryctolagus cuniculus [19]),also measured
CCN1C[C@]2(COC(=O)c3ccccc3NC(=O)CCC(=O)OC)CC[C@H](OC)[C@@]34[C@@H]5C[C@H]6[C@H](OC)[C@@H]5[C@](O)(C[C@@H]6OC)[C@](O)([C@@H](OC)[C@H]23)[C@@H]14 [CASHMIRADELPHINE],-5 bpm,-5 bpm,5 bpm,,,,,,,,,Activity (Oryctolagus cuniculus [3]): -20 bpm; Activity (Oryctolagus cuniculus [4]): -8 bpm; Activity (Oryctolagus cuniculus [5]): -10 bpm; Activity (Oryctolagus cuniculus [6]): -5 bpm
CCN1C[C@]2(O)CC[C@H](OC)[C@@]34[C@@H]2C[C@H]([C@@H]13)[C@@]1(O)C[C@H](OC)[C@H]2C[C@@H]4[C@]1(O)[C@H]2OC [LAPPACONINE],,,,-5 bpm,0 bpm,0 bpm,0 bpm,0 bpm,,,,
CCN1C[C@]2(COC(=O)c3ccccc3N3C(=O)CCC3=O)CC[C@H](OC)[C@]34C1[C@](O)([C@@H](OC)[C@H]23)[C@@]1(O)C[C@H](OC)[C@H]2C[C@@H]4[C@@H]1[C@H]2OC [LYCACONITINE],0 bpm,-10 bpm,-10 bpm,,,,,,,,,Activity (Oryctolagus cuniculus [13]): 3 bpm; Activity (Oryctolagus cuniculus [14]): 5 bpm; Activity (Oryctolagus cuniculus [15]): 0 bpm; Activity (Oryctolagus cuniculus [16]): -5 bpm
CCN1C[C@]2(C=O)CC[C@H](OC)[C@@]34[C@@H]5C[C@@H]6[C@@H](OC)C[C@@](O)(C5[C@H]6OC)[C@](O)([C@@H](OC)[C@H]23)[C@@H]14 [LYCOCTONAL],,,,-5 bpm,0 bpm,0 bpm,0 bpm,-10 bpm,0 bpm,0 bpm,0 bpm,Activity (Oryctolagus cuniculus [20]): -3 bpm; Activity (Oryctolagus cuniculus [21]): 0 bpm
CCN1C[C@]2(CO)CC[C@H](OC)[C@@]34[C@@H]5C[C@H]6[C@H](OC)[C@@H]5[C@](O)(C[C@@H]6OC)[C@](O)([C@@H](OC)[C@H]23)[C@@H]14 [LYCOCTONINE],,,,-25 bpm,,0 bpm,,,5 bpm,5 bpm,0 bpm,Activity (Oryctolagus cuniculus [22]): 0 bpm
